Results reported in US5908868A, “Retinol derivatives useful for enhancing immune response” (priority 1995, dated 1999).

Assays:
[1] = Chemical stability during extraction; assay type: physicochemical
Reversion to retinol = assay type: in vitro ADME
B lymphocytes = test: B cell growth/survival; assay type: cell-based; details: on a concentration basis
thymocytes = test: Proliferation of Con A activated thymocytes in serum-free medium; assay type: cell-based, BALB/c mouse; details: Con A 0.5 μg/ml, retinol 3×10^-6 M, ITLB
Description: Purified thymocytes (5×10^5 cells/well) were stimulated by TCR crosslinking with immobilized anti-CD3e antibody (FIG. 15A) or 0.4 μg/ml Con A (FIG. 15B) in serum-free ITLB medium. The indicated amounts of retinoids were added either once at the beginning of the experiment (marked as "1x") or every 12 hours thereafter (marked as "6x"). DNA synthesis was measured after 72 hours by tritiated thymidine uptake as described.
Thymuses of 3 to 6-week-old BALB/c mice were teased in serum-free RPMI medium supplemented with 1% BSA, 10^-6 M linoleic acid and antibiotics. […] Cell viability was evaluated by trypan blue dye exclusion. To determine the extent of depletion of accessory cells, samples were stained with FITC-conjugated anti-Fc receptor antibody and analyzed by flow cytometry on a FACScan instrument (Becton Dickinson). No FcR-bearing cells were detected by this procedure.
Cells were cultured in serum-free medium, referred to as ITLB, containing RPMI 1640 supplemented with 8×10^-7 M insulin (5 μg/ml), 7×10^-8 M transferrin (5 μg/ml), 2×10^-6 M linoleic acid, 2×10^-6 M delipidated BSA (0.12 mg/ml), 2 mM L-glutamine, 1 mM sodium pyruvate and antibiotics. […] The optimal concentration for stimulation of T cells was determined for each batch of anti-CD3 mAb and Con A. The optimal range of Con A was particularly narrow in serum-free medium (0.5-0.2 μg/ml) and varied with the cell density used. […]

ERLD = test: Retinol metabolism; assay type: in vitro ADME
Description: (§1) FBS. The FBS was preincubated at room temperature with 14.4 uCi [^3 H
(§2) retinol (NEN) for 4 h. The cell pellet was washed twice with PBS. The
(§3) retinoid were extracted according to MClean et al. 90 and separated on an
(§4) analytical c18 reverse phase column according to FIG. 7. The DPM wer
(§5) determined using an online scintillation counter.

SK3886 = test: Retinol metabolism; assay type: in vitro ADME
Description: as §1, §2, §3, §4, §5

RPMI = test: Retinol metabolism; assay type: in vitro ADME; details: RPMI leukemia (ALL)
Description: as §1, §2, §3, §4, §5

P388D.1 = test: Retinol metabolism; assay type: in vitro ADME, mouse
Description: as §1, §2, §3, §4, §5

EL-4 = test: Retinol metabolism; assay type: in vitro ADME, mouse
Description: as §1, §2, §3, §4, §5

SLA = test: Retinol metabolism; assay type: in vitro ADME, mouse
Description: as §1, §2, §3, §4, §5

For `CC(C=CC=C(C)C(O)CO)=CC=C1C(C)=CCCC1(C)C` (centres unmarked) [14HRR, 14-hydroxy-4,14-retro-retinol], the “stability to acid extraction” value ([1]; acid extraction step) was “does not survive an acid extraction step”, the stability in chloroform ([1]; chloroform) was “unstable in chloroform” and the reversion to retinol (Reversion to retinol) was “does not revert to retinol”. The “activity relative to all-trans retinol in B cells” value (B lymphocytes) was 10-30 fold more active.
In the case of `CC1=C(/C=C/C(C)=C/C=C/C(C)=C/CO)C(C)(C)CCC1` [retinol, all-trans retinol], the thymocyte proliferation (thymocytes) was “growing exponentially”, the Total cts. (ERLD) was 2.8 × 10^5 cts and the “Ester (% of taken up retinol)” value (ERLD; overnight) was 20%. For the same compound, the “P3 (% of taken up retinol)” value (ERLD; overnight) was 9%, the “Retinol (% of taken up retinol)” value (ERLD; overnight) was 63% and the Total cts. (SK3886; SK3886) was 4.7 × 10^5 cts. For the same compound, the “Ester (% of taken up retinol)” value (SK3886; SK3886, overnight) was 2%, the “P3 (% of taken up retinol)” value (SK3886; SK3886, overnight) was 3% and the “Retinol (% of taken up retinol)” value (SK3886; SK3886, overnight) was 92%. For the same compound, the Total cts. (RPMI) was 1.2 × 10^5 cts, the “Ester (% of taken up retinol)” value (RPMI; overnight) was 38% and the “P3 (% of taken up retinol)” value (RPMI; overnight) was 2%. The “Retinol (% of taken up retinol)” value (RPMI; overnight) was 58%, the Total cts. (P388D.1; P388D.1) was 1.4 × 10^5 cts and the “Ester (% of taken up retinol)” value (P388D.1; P388D.1, overnight) was 26%. The “P3 (% of taken up retinol)” value (P388D.1; P388D.1, overnight) was 0.5%, the “Retinol (% of taken up retinol)” value (P388D.1; P388D.1, overnight) was 71% and the Total cts. (EL-4; EL-4) was 2.8 × 10^5 cts. The “Ester (% of taken up retinol)” value (EL-4; EL-4, overnight) was 44%, the “P3 (% of taken up retinol)” value (EL-4; EL-4, overnight) was 5% and the “Retinol (% of taken up retinol)” value (EL-4; EL-4, overnight) was 40%. For the same compound, the Total cts. (SLA) was 6.1 × 10^5 cts, the “Ester (% of taken up retinol)” value (SLA; overnight) was 9% and the “P3 (% of taken up retinol)” value (SLA; overnight) was 3%. The “Retinol (% of taken up retinol)” value (SLA; overnight) was 85%.
